Test results reported in paper PMC6271220, “Synthesis, Molecular Docking and Biological Evaluation of Glycyrrhizin Analogs as Anticancer Agents Targeting EGFR” (Molecules, 2014).

How the values were obtained:
[1] = test system: S180 (sarcoma tumer cell line); experiment: In vivo tumor xenograft model, S180 tumor-bearing mice; parameters: species or system Kunming mice; conditions: 60 mg/kg/day oral gavage, ten days; for Inhibition rate: from average tumor weights vs control
Protocol: (§1) Kunming mice (SPF, male or female, 20 ± 2 g) were purchased from the experimental animal center of China Pharmaceutical University. Animals were housed in a temperature (22 ± 2 °C) and relatively humidity (50%)-controlled room on a 12 h light/dark cycle, given free access to food and water, and acclimatized for at least one week prior to use. All the animal experiments were performed in accordance with the Regulations of the Experimental Animal Administration issued by the State Committee of Science and Technology of China.
(§2) Cell lines used for evaluation of the in vivo antitumor activity in this study included three tumor cell lines, namely S180 (sarcoma tumer cell line), HepG2 (liver carcinoma cell line), EAC (Ehrlich ascites carcinoma cell line). All of cell lines were purchased by the Shanghai Institutes for Biological Sciences, Chinese Academy of Sciences, and the cells were cultured in RPMI-1640 medium, which was supplemented with 10% heat-inactivated fetal bovine serum, 100 U/mL penicillin and 100 U/mL streptomycin and cultured in an atmosphere of 5% CO2 at 37 °C. Cells were collected for the experiments in the logarithmic growth phase.
(§3) To establish the tumor-bearing mouse model, the cell lines were harvested and inoculated subcutaneously into the right armpit region of the mice. On the 7th day, the tumor ascrites were obtained and washed with sterile PBS. Under sterile condition, the tumor ascrites were diluted with sterile nomal saline to 1 × 10^10 /L cell suspension. Tumor ascites were maintained in vivo in mice by transplantation of 0.2 mL of ascites (2 × 10^6 cells) from the infected mice to the non-infected mice.
(§4) Each Kunming mouse (male or female, weight 20 ± 2 g) were inoculated with seven-day-old ascrite (0.2 mL, 2 × 10^6 cells) subcutaneously into the right front armpit. 24 h after implantation of tumor cells, the mice were randomly divided into five test groups with 10 mice per group. Each mouse was weighed immediately after inoculation. The mice were treated by oral gavage with test samples (60 mg/kg/day) or normal saline (NS, 10 mL/kg) for ten days once daily. On day 11, the mice were sacrificed via cervical dislocation, and the mouse and tumor were excised and weighed for evaluating the tumor growth inhibition. The tumor inhibitory rate was calculated by the following formula: [drawing 5] (1) where Wcontrol and Wtreated were the average tumor weights of the control and treated mice, respectively. […] The effect of glycyrrhizin analogs on percentage increases in life span was calculated on the basis of mortality of the experimental mice: […]

[2] = test system: HeLa (cervix of uterus adenocarcinoma); experiment: CCK-8 anti-proliferative assay, HeLa; assay type: cell-based; conditions: Homo sapiens, CCK-8 assay, average of three independent experiments in triplicate
Protocol: (§5) CCK8 is much more convenient and helpful than MTT for analyzing cell proliferation, because it can be reduced to soluble formazan by dehydrogenase in mitochondria and has little toxicity to cells. Cell proliferation was determined using CCK8 dye (BeyotimeInst Biotech, Shanghai, China) according to manufacturer’s instructions. Briefly, 1–5 × 10^3 cells per well were seeded in a 96-well plate, grown at 37 °C for 12 h, Subsequently, cells were treated with compounds at increasing concentrations in the presence of 10% FBS for 24 or 48 h. After 10 µL CCK8 dye was added to each well, cells were incubated at 37 °C for 1–2 h and Plates were read in a Victor-V multilabel counter (Perkin-Elmer, Waltham, MA, USA) using the default europium detection protocol. Percent inhibition or IC50 values of compounds were calculated by comparison with DMSO-treated control wells.

[3] = test system: HepG2 (hepatocellular carcinoma); experiment: CCK-8 anti-proliferative assay, HepG2; assay type: cell-based; conditions: Homo sapiens, CCK-8 assay, average of three independent experiments in triplicate
Protocol: as §5

[4] = test system: HepG2 (liver carcinoma cell line); experiment: In vivo tumor xenograft model, HepG2 tumor-bearing mice; parameters: species or system Kunming mice; conditions: 60 mg/kg/day oral gavage, ten days; for Inhibition rate: from average tumor weights vs control
Protocol: as §1, §2, §3, §4

A549 (lung carcinoma) = experiment: CCK-8 anti-proliferative assay, A549; assay type: cell-based; conditions: Homo sapiens, CCK-8 assay, average of three independent experiments in triplicate
Protocol: as §5

[5] = test system: EAC (Ehrlich ascites carcinoma cell line); experiment: Survival of EAC tumor-bearing mice; assay type: in vivo, Kunming mice; conditions: for Survival time: control 16.40 ± 2.07 d; for Survival rate: percentage increase in life span vs control
Protocol: as §1, §2, §3, §4

EGFR = biological target: T1, EGFR (Homo sapiens, UniProt P00533); experiment: EGFR kinase autophosphorylation assay (DELFIA/time-resolved fluorometry); assay type: biochemical; conditions: in vitro EGFR enzyme inhibition
T1 construct: EGFR cytoplasmic domain (EGFR-CD, amino acids 645–1186); (His)6 (N); made in house; host or cells: Sf-9 insect cells (baculovirus)
T1 sequence (P00533 669-1210): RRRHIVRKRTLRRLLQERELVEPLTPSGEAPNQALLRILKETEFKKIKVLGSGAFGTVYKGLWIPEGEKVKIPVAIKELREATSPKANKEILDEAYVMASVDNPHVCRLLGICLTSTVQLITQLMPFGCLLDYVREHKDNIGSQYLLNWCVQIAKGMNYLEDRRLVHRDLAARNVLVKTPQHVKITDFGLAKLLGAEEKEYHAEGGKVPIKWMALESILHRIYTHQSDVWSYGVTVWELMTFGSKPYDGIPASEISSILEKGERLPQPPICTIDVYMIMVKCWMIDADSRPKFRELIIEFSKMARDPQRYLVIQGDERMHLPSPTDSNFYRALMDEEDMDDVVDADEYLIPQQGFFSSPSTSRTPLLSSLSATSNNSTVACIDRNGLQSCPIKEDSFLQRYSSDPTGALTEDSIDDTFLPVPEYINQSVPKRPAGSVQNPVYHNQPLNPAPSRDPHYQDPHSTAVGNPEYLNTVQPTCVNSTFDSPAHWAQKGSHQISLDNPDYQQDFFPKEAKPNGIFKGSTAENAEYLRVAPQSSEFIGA
Protocol: A sequence that encodes (His)6 was located at the 5′ upstream to the EGFR sequences. Sf-9 cells were infected for 3 days for protein expression. Sf-9 cell pellets were solubilized at 0 °C in a buffer at pH 7.4 containing 50 mM HEPES, 10 mM NaCl, 1% Triton, 10 µM ammonium molybdate, 100 µM sodium vanadate, 10 µg/mL aprotinin, 10 µg/mL leupeptin, 10 µg/mL pepstatin, and 16 µg/mL benzamidine HCl for 20 min followed by 20 min centrifugation. Crude extract supernatant was passed through an equilibrated Ni-NTA superflow packed column and washed with 10 mM and then 100 mM imidazole to remove nonspecifically bound material. Histidine tagged proteins were eluted with 250 and 500 mM imidazole and dialyzed against 50 mM NaCl, 20 mM HEPES, 10% glycerol, and 1 µg/mL each of aprotinin, leupeptin and pepstatin for 2 h. The entire purification procedure was performed at 4 °C or on ice.
EGFR kinase assays were set up to assess the level of autophosphorylation based on DELFIA/Time-Resolved Fluorometry. All compounds were dissolved in 100% DMSO and diluted to the appropriate concentrations with 25 mM HEPES at pH 7.4. In each well, 10 µL compound was incubated with 10 µL (5 ng for EGFR) recombinant enzyme (1:80 dilution in 100 mM HEPES) for 10 min at room temperature. Then, 10 µL of 5 mM buffer (containing 20 mM HEPES, 2 mM MnCl2, 100 µM Na3VO4 and 1 mM DTT) and 20 µL of 0.1 mM ATP–50 mM MgCl2 were added for 1 h. Positive and negative controls were included in each plate by incubation of enzyme with or without ATP–MgCl2. At the end of incubation, liquid was aspirated, and plates were washed three times with wash buffer. A 75 µL (400 ng) sample of europium labeled anti-phosphotyrosine antibody was added to each well for another 1 h of incubation. After washing, enhancement solution was added and the signal was detected by Victor (Wallac Inc., Gaithersburg, MD, USA) with excitation at 340 nm and emission at 615 nm. The percentage of auto-phosphorylation inhibition by the compounds was calculated using the following formula: 100% − [(negative control)/(positive control − negative control)]. The IC50 was obtained from curves of percentage inhibition with eight concentrations of compound.

Structure (SMILES) | Body weight End [1] [g] | Tumor weight [1] [g] | Inhibition rate [1] [%] | IC50 [2] [µM] | IC50 [3] [µM] | Body weight End [4] [g] | Tumor weight [4] [g] | Inhibition rate [4] [%] | IC50 (A549 (lung carcinoma)) [µM] | Survival time [5] [days] | Survival rate [5] [%] | IC50 (EGFR) [µM]
CC1(C(=O)O)CCC2(C)CCC3(C)C(=CC(=O)C4C5(C)CCC(OC6OC(C(=O)O)C(O)C(O)C6OC6OC(C(=O)O)C(O)C(O)C6O)C(C)(C)C5CCC43C)C2C1 (stereo not drawn) [18α-GA, 18α-Glycyrrhizin] | 25.20 ± 1.11 | 1.29 ± 0.47 | 32.5 | 15.1 | 54.2 | 26.08 ± 1.26 | 1.22 ± 0.46 | 37.4 | 41.6 | 19.75 ± 3.08 | 20.4 | 0.081
CC1(C)[C@@H](O[C@@H]2O[C@H](C(=O)O)[C@@H](O)[C@H](O)[C@H]2O)CC[C@]2(C)[C@H]3C(=O)C=C4[C@H]5C[C@@](C)(C(=O)O)CC[C@]5(C)CC[C@@]4(C)[C@]3(C)CC[C@@H]12 [18α-GAMG] | 25.25 ± 1.80 | 1.15 ± 0.50 | 39.8 | 7.43 | 6.67 | 27.02 ± 2.10 | 0.98 ± 0.43 | 49.7 | 15.8 | 23.85 ± 5.41 | 45.4 | 0.028
CC1(C)[C@@H](O[C@H]2O[C@H](C(=O)O)[C@@H](O)[C@H](O)[C@H]2O[C@@H]2O[C@H](C(=O)O)[C@@H](O)[C@H](O)[C@H]2O)CC[C@]2(C)[C@H]3C(=O)C=C4[C@@H]5C[C@@](C)(C(=O)O)CC[C@]5(C)CC[C@@]4(C)[C@]3(C)CC[C@@H]12 [18β-GA, Glycyrrhizin] | 24.48 ± 2.37 | 1.33 ± 0.67 | 30.4 | 18.9 | 63.6 | 26.94 ± 2.05 | 1.26 ± 0.65 | 35.4 | 51.9 | 19.40 ± 3.77 | 18.3 | 0.092
CC1(C)[C@@H](O[C@@H]2O[C@H](C(=O)O)[C@@H](O)[C@H](O)[C@H]2O)CC[C@]2(C)[C@H]3C(=O)C=C4[C@@H]5C[C@@](C)(C(=O)O)CC[C@]5(C)CC[C@@]4(C)[C@]3(C)CC[C@@H]12 [18β-GAMG, glycyrrhetic acid 3-O-mono-β-D-glucuronide] | 25.02 ± 2.58 | 1.25 ± 0.19 | 34.6 | 8.39 | 33.6 | 27.8 ± 1.57 | 1.20 ± 0.35 | 38.4 | 21.6 | 21.05 ± 4.65 | 28.4 | 0.069
C#Cc1cccc(Nc2ncnc3cc(OCCOC)c(OCCOC)cc23)c1 [Erlotinib, reference compound] |  |  |  | 0.2 | 0.12 |  |  |  | 0.13 |  |  | 
